According to patent US20210087620A1, “Target Gene Identifying Method for Tumor Treatment” (Samsung Life Public Welfare Foundation Samsung Life Public …, priority 2017, published 2021):

Tests used:
[1] = system: right tumor-derived cells of the GBM9 patient; test: PDC-based chemical screening (ATP cell viability, dose-response AUC), right tumor; set-up: species or system human; details: GBM9 right tumor PDCs
Method: (§1) According to one embodiment, the measuring of drug sensitivity of each sample by subjecting the multiple samples to drug screening may include obtaining a cell viability curve of each sample according to a dose of each drug; and calculating an area under the curve.
(§2) GBM9 patient had tumors in the right and left frontal lobes of the brain, respectively. In this regard, 40 kinds of anticancer agents were administered to samples collected from the respective tumors, and tumor cell viability was examined.
(§3) When a curve of tumor cell viability vs drug dose is plotted, an area under the curve (AUC) may be used as an index of drug sensitivity. […]
(§4) PDCs grown in serum-free medium were seeded in 384 well plates at a density of 500 cells per well in duplicate or triplicate. […] After 6 days of incubation at 37° C. in a 5% CO2 humidified incubator, cell viability was analyzed using an adenosine triphosphate (ATP) monitoring system based on firefly luciferase (ATPLite™ 1step, PerkinElmer). At this time, viable cells were estimated using an EnVision Multilabel Reader (PerkinElmer). […] DRC fitting was performed using GraphPad Prism 5 (GraphPad) and evaluated by measuring an area under the curve (AUC) of dose response curve. After normalization, best-fit lines were determined and the AUC value of each curve was calculated using a GraphPad Prism. […]

[2] = system: left tumor-derived cells of the GBM9 patient; test: PDC-based chemical screening (ATP cell viability, dose-response AUC), left tumor; set-up: species or system human; details: GBM9 left tumor PDCs
Method: as §1, §2, §3, §4

[3] = 6 days, 20 μM to 4.88 nM, FIG. 6

Nc1cc(C(F)(F)F)c(-c2cc(N3CCOCC3)nc(N3CCOCC3)n2)cn1 [BKM120, Buparlisib]
survival rate of tumor cells with increasing drug dose [1, 3]: survival rates of the two tumors decreased
area under the curve (AUC) of cell viability vs dose (low AUC = high drug sensitivity) ([1]; FIG. 6, FIG. 7): relatively low
survival rate of tumor cells with increasing drug dose [2, 3]: survival rates of the two tumors decreased
area under the curve (AUC) of cell viability vs dose (low AUC = high drug sensitivity) ([2]; FIG. 6, FIG. 7): relatively low
